Source: patent EP4667483A1, “HUMAN TRANSFERRIN RECEPTOR-BINDING PEPTIDE” (JCR Pharmaceuticals Co., Ltd., priority 2023, dated 2024)
pKd: −log10 of the molar value. Bridge positions count the residues as written; N and C are the ends. Square brackets hold non-standard residues; d marks the D form. Peptide text beside a SMILES is read from it. * marks the point of attachment. Ala(imidazo(1,2-a)pyr3yl) = N[C@@H](Cc1cnc2ccccn12)C(=O)O; Trp(1-CH2COOH) = N[C@@H](Cc1cn(CC(=O)O)c2ccccc12)C(=O)O; CH2CON(CH2CH2)2NCH2COOH = O=C(O)CN1CCN(C(=O)C*)CC1; NMePhe(4-COOH) = CN[C@@H](Cc1ccc(C(=O)O)cc1)C(=O)O; Nle(6-morpholino) = N[C@@H](CCCCN1CCOCC1)C(=O)O; Phe(3-COOH) = N[C@@H](Cc1cccc(C(=O)O)c1)C(=O)O; Tyr(2,6-F2) = N[C@@H](Cc1c(F)cc(O)cc1F)C(=O)O; NMePhe(3-Cl) = CN[C@@H](Cc1cccc(Cl)c1)C(=O)O; Trp(1-Me) = Cn1cc(C[C@H](N)C(=O)O)c2ccccc21; 3Pal(6-OMe) = COc1ccc(C[C@H](N)C(=O)O)cn1; NMeY = CN[C@@H](Cc1ccc(O)cc1)C(=O)O; Nva(3-Et) = CCC(CC)[C@H](N)C(=O)O; 4Pal = N[C@@H](Cc1ccncc1)C(=O)O; PEG4 = NCCOCCOCCOCCOCCC(=O)O; Carboxymethyl = O=C(O)C*

Experiments:
Assay type in all cases: binding
[1] = biological target: T1, human transferrin receptor (hTfR) (Homo sapiens, UniProt P02786); test: Evaluation of pH dependence (ratio of SPR koff or KD at pH 6.0 to pH 7.4); conditions: ratio of koff at pH 6.0 to pH 7.4
Experimental: The ratio of the calculated koff or KD values under pH 6.0 conditions to those under pH 7.4 conditions was calculated to check pH dependency.

[2] = biological target: T1, human transferrin receptor (hTfR); test: SPR measurement under pH 7.4 conditions (Biacore T200, CM3 chip, hTfR captured by His Tag antibody); conditions: read-out: hTfR SPR pH7.4 KD
[3] = biological target: T1, human transferrin receptor (hTfR); test: SPR measurement under pH 6.0 conditions (Biacore T200, NTA chip, immobilized hTfR); conditions: read-out: hTfR SPR pH6.0 KD

T1 sequence (P02786 whole entry): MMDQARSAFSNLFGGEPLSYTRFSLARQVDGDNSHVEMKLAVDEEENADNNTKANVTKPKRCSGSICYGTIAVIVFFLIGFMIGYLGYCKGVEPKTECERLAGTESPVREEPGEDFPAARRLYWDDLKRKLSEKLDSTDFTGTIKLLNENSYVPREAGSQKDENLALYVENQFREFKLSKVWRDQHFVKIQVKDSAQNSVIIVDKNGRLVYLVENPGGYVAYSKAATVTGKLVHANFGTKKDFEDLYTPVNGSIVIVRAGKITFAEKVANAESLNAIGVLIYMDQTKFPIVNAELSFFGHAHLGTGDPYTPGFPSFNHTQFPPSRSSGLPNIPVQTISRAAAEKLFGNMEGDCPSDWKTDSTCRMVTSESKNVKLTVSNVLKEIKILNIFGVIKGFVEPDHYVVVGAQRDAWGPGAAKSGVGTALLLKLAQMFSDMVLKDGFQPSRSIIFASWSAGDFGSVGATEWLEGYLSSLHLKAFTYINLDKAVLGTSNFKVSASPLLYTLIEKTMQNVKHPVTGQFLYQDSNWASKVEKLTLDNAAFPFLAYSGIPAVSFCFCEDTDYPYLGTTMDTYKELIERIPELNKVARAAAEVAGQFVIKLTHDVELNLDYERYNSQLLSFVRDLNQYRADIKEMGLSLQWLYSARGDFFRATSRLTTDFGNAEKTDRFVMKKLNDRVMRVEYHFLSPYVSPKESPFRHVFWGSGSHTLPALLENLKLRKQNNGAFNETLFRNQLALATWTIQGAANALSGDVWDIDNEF

Row | Compound | dependency koff pH6.0/7.4 [1] | other results
1 | CC[C@H](C)[C@@H]1NC(=O)[C@H](Cc2ccc(OC)cc2)NC(=O)[C@H](Cc2ccc(O)cc2)NC(=O)[C@H](CC(N)=O)NC(=O)[C@H](Cc2c[nH]c3ccccc23)NC(=O)[C@H](C(C)C)NC(=O)[C@H](Cc2cccc(Cl)c2)N(C)C(=O)[C@H](C(C)C)NC(=O)[C@H](C)NC(=O)CSC[C@@H](C(=O)NCCOCCOCCOCCOCCC(N)=O)NC(=O)[C@H](Cc2ccc(C(=O)O)cc2)N(C)C(=O)[C@H](Cc2cccc(C(=O)O)c2)NC(=O)[C@H](CCCNC(=N)N)NC(=O)[C@H](CCC(N)=O)NC(=O)[C@H]([C@@H](C)CC)NC1=O [compound 80] ({CH2CO}-AV[NMePhe(3-Cl)]VWNYY(Me)IIQR[Phe(3-COOH)][NMePhe(4-COOH)]C[PEG4]-NH2; thioether N-15) | 22.20 | 
2 | CCC(CC)[C@@H]1NC(=O)[C@H](Cc2ccc(OCC(=O)N3CCN(CC(=O)O)CC3)cc2)NC(=O)[C@H](Cc2ccc(O)cc2)NC(=O)[C@H](CC(N)=O)NC(=O)[C@H](Cc2cn(CC(=O)O)c3ccccc23)NC(=O)[C@H](C(C)C)NC(=O)[C@H](Cc2cccc(Cl)c2)N(C)C(=O)[C@H](C(C)C)NC(=O)[C@H](C)NC(=O)CSC[C@@H](C(=O)NCCOCCOCCOCCOCCC(N)=O)NC(=O)[C@H](Cc2ccc(C(=O)O)cc2)N(C)C(=O)[C@H](Cc2ccncc2)NC(=O)[C@H](CCCCN2CCOCC2)NC(=O)[C@H](CCCCN2CCOCC2)NC(=O)[C@H]([C@@H](C)CC)NC1=O [compound 56] ({CH2CO}-AV[NMePhe(3-Cl)]V[Trp(1-CH2COOH)]NYY(CH2CON(CH2CH2)2NCH2COOH)[Nva(3-Et)]I[Nle(6-morpholino)][Nle(6-morpholino)][4Pal][NMePhe(4-COOH)]C[PEG4]-NH2; thioether N-15) |  | pKd ([2]; pH 7.4, single-cycle kinetics): 7.90; pKd ([3]; pH 6.0, single-cycle kinetics): 7.14
3 | CC[C@H](C)[C@@H]1NC(=O)[C@H](Cc2ccc(OCC(=O)N3CCN(CC(=O)O)CC3)cc2)NC(=O)[C@H](Cc2ccc(O)cc2)NC(=O)[C@H](CC(N)=O)NC(=O)[C@H](Cc2c[nH]c3ncccc23)NC(=O)[C@H](C(C)C)NC(=O)[C@H](Cc2cccc(Cl)c2)N(C)C(=O)[C@H](C(C)C)NC(=O)[C@H](C)NC(=O)CSC[C@@H](C(=O)NCCOCCOCCOCCOCCC(N)=O)NC(=O)[C@H](Cc2ccc(O)cc2)N(C)C(=O)[C@H](Cc2ccncc2)NC(=O)[C@H](CCCCN2CCOCC2)NC(=O)[C@H](CCC(N)=O)NC(=O)[C@H]([C@@H](C)CC)NC1=O [compound 23] |  | pKd ([2]; pH 7.4, single-cycle kinetics): 8.46; pKd ([3]; pH 6.0, single-cycle kinetics): 7.48
4 | CC[C@H](C)[C@@H]1NC(=O)[C@H](Cc2ccc(OC)cc2)NC(=O)[C@H](Cc2ccc(O)cc2)NC(=O)[C@H](CC(N)=O)NC(=O)[C@H](Cc2cn(C)c3ccccc23)NC(=O)[C@H](C(C)C)NC(=O)[C@H](Cc2cccc(Cl)c2)N(C)C(=O)[C@H](C(C)C)NC(=O)[C@H](C)NC(=O)CSC[C@@H](C(=O)NCCOCCOCCOCCOCCC(N)=O)NC(=O)[C@H](Cc2ccc(O)cc2)N(C)C(=O)[C@H](Cc2ccncc2)NC(=O)[C@H](CCCNC(=N)N)NC(=O)[C@H](CCCCN)NC(=O)[C@H]([C@@H](C)CC)NC1=O [compound 130] |  | pKd ([2]; SPR, pH 7.4, peptide with the linker named in the table): 9.17; pKd ([3]; SPR, pH 6.0, peptide with the linker named in the table): 8.76

Continued, in another order:

Row | dependency koff pH6.0/7.4 [1] | Compound | other results
5 | 7.99 | CCC(CC)[C@@H]1NC(=O)[C@H](Cc2ccc(OCC(=O)O)cc2)NC(=O)[C@H](Cc2ccc(O)cc2)NC(=O)[C@H](CC(N)=O)NC(=O)[C@H](Cc2cn(CC(=O)O)c3ccccc23)NC(=O)[C@H](C(C)C)NC(=O)[C@H](Cc2cccc(Cl)c2)N(C)C(=O)[C@H](C(C)C)NC(=O)[C@H](C)NC(=O)CSC[C@@H](C(=O)NCCOCCOCCOCCOCCC(N)=O)NC(=O)[C@H](Cc2ccc(OC)cc2)N(C)C(=O)[C@H](Cc2cccc(C(=O)O)c2)NC(=O)[C@H](CCCNC(=N)N)NC(=O)[C@H](CCC(N)=O)NC(=O)[C@H]([C@@H](C)CC)NC1=O [compound 93] ({CH2CO}-AV[NMePhe(3-Cl)]V[Trp(1-CH2COOH)]NYY(Carboxymethyl)[Nva(3-Et)]IQR[Phe(3-COOH)][NMeY](Me)C[PEG4]-NH2; thioether N-15) | 
6 | 8.01 | CCC(CC)[C@@H]1NC(=O)[C@H](Cc2ccc(OC)nc2)NC(=O)[C@H](Cc2ccc(O)cc2)NC(=O)[C@H](CC(N)=O)NC(=O)[C@H](Cc2cn(CC(=O)O)c3ccccc23)NC(=O)[C@H](C(C)C)NC(=O)[C@H](Cc2cccc(Cl)c2)N(C)C(=O)[C@H](C(C)C)NC(=O)[C@H](C)NC(=O)CSC[C@@H](C(=O)NCCOCCOCCOCCOCCC(N)=O)NC(=O)[C@H](Cc2ccc(O)cc2)N(C)C(=O)[C@H](Cc2cccc(C(=O)O)c2)NC(=O)[C@H](CCCNC(=N)N)NC(=O)[C@H](CCC(N)=O)NC(=O)[C@H]([C@@H](C)CC)NC1=O [compound 90] ({CH2CO}-AV[NMePhe(3-Cl)]V[Trp(1-CH2COOH)]NY[3Pal(6-OMe)][Nva(3-Et)]IQR[Phe(3-COOH)][NMeY]C[PEG4]-NH2; thioether N-15) | 
7 | 5.31 | CC[C@H](C)[C@@H]1NC(=O)[C@H](Cc2ccc(OCC(=O)O)cc2)NC(=O)[C@H](Cc2ccc(O)cc2)NC(=O)[C@H](CC(N)=O)NC(=O)[C@H](Cc2cn(C)c3ccccc23)NC(=O)[C@H](C(C)C)NC(=O)[C@H](Cc2cccc(Cl)c2)N(C)C(=O)[C@H](C(C)C)NC(=O)[C@H](C)NC(=O)CSC[C@@H](C(=O)NCCOCCOCCOCCOCCC(N)=O)NC(=O)[C@H](Cc2ccc(O)cc2)N(C)C(=O)[C@H](Cc2cccc(C(=O)O)c2)NC(=O)[C@H](CCCNC(=N)N)NC(=O)[C@H](CCC(N)=O)NC(=O)[C@H]([C@@H](C)CC)NC1=O [compound 79] ({CH2CO}-AV[NMePhe(3-Cl)]V[Trp(1-Me)]NYY(Carboxymethyl)IIQR[Phe(3-COOH)][NMeY]C[PEG4]-NH2; thioether N-15) | 
8 | 9.32 | CCC(CC)[C@@H]1NC(=O)[C@H](Cc2cnc3ccccn23)NC(=O)[C@H](Cc2ccc(O)cc2)NC(=O)[C@H](CC(N)=O)NC(=O)[C@H](Cc2cn(CC(=O)O)c3ccccc23)NC(=O)[C@H](C(C)C)NC(=O)[C@H](Cc2cccc(Cl)c2)N(C)C(=O)[C@H](C(C)C)NC(=O)[C@H](C)NC(=O)CSC[C@@H](C(=O)NCCOCCOCCOCCOCCC(N)=O)NC(=O)[C@H](Cc2ccc(O)cc2)N(C)C(=O)[C@H](Cc2cccc(C(=O)O)c2)NC(=O)[C@H](CCCNC(=N)N)NC(=O)[C@H](CCC(N)=O)NC(=O)[C@H]([C@@H](C)CC)NC1=O [compound 91] ({CH2CO}-AV[NMePhe(3-Cl)]V[Trp(1-CH2COOH)]NY[Ala(imidazo(1,2-a)pyr3yl)][Nva(3-Et)]IQR[Phe(3-COOH)][NMeY]C[PEG4]-NH2; thioether N-15) | 
9 | 4.38 | CC[C@H](C)[C@@H]1NC(=O)[C@H](Cc2ccc(OCC(=O)O)cc2)NC(=O)[C@H](Cc2c(F)cc(O)cc2F)NC(=O)[C@H](CC(N)=O)NC(=O)[C@H](Cc2cn(CC(=O)O)c3ccccc23)NC(=O)[C@H](C(C)C)NC(=O)[C@H](Cc2cccc(Cl)c2)N(C)C(=O)[C@H](C(C)C)NC(=O)[C@H](C)NC(=O)CSC[C@@H](C(=O)NCCOCCOCCOCCOCCC(N)=O)NC(=O)[C@H](Cc2ccc(O)cc2)N(C)C(=O)[C@H](Cc2cccc(C(=O)O)c2)NC(=O)[C@H](CCCNC(=N)N)NC(=O)[C@H](CCC(N)=O)NC(=O)[C@H]([C@@H](C)CC)NC1=O [compound 78] ({CH2CO}-AV[NMePhe(3-Cl)]V[Trp(1-CH2COOH)]N[Tyr(2,6-F2)]Y(Carboxymethyl)IIQR[Phe(3-COOH)][NMeY]C[PEG4]-NH2; thioether N-15) | 
